# Experimental data taken from patent publication US20190053492A1, “SUBSTITUTED PYRIDINE COMPOUNDS AS PESTICIDES” (Bayer CropScience Aktiengesellschaft, priority 2016, published 2019).
# Read-outs that look alike come from different tables or passages of the source.
# Legend:
# [1] = log P by HPLC on reversed-phase column (C 18), EEC Directive 79/831 Annex V.A8; format: physicochemical; conditions: 55° C.; for LOGP_HCOOH: log P (HCOOH); for LOGP_NEUTRAL: log P, neutral range; for chromatographic logP: reversed-phase HPLC column (C 18)
# Description: Temperature: 55° C. […] Called log P (HCOOH) in the table. […] Called log P (neutral) in the table.
# [2] = test system: Phaedon cochleariae; assay: Phaedon cochleariae spray test; format: in vivo; conditions: after 7 days, Chinese cabbage leaf discs
# Description: Phaedon cochleariae—Spray Test
# Solvent: 78.0 parts by weight of acetone • • 1.5 parts by weight of dimethylformamide
# Emulsifier: alkylaryl polyglycol ether
# To produce a suitable active ingredient formulation, 1 part by weight of active ingredient is dissolved with the specified parts by weight of solvent and made up with water containing an emulsifier concentration of 1000 ppm until the desired concentration is attained. To produce further test concentrations, the formulation is diluted with emulsifier-containing water.
# Discs of Chinese cabbage leaves (Brassica pekinensis) are sprayed with an active ingredient formulation of the desired concentration and, after drying, populated with larvae of the mustard beetle (Phaedon cochleariae).
# After 7 days, the efficacy in % is determined. 100% means that all the beetle larvae have been killed; 0% means that no beetle larvae have been killed.
# [3] = test system: Spodoptera frugiperda; assay: Spodoptera frugiperda spray test; format: in vivo; conditions: after 7 days, maize leaf discs
# Procedure, shortened: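 Maize leaf discs were sprayed with compound formulated in acetone/DMF and emulsifier-containing water, dried, then infested with Spodoptera frugiperda caterpillars. Percent kill was scored after 7 days, from 100% (all dead) to 0% (none dead).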
# [4] = acidic range pH 2.7, 0.1% aqueous formic acid and acetonitrile, reversed-phase column (C 18)
# [5] = HPLC on reversed-phase column (C 18)
# [6] = acidic range at pH 2.7, 0.1% aqueous formic acid and acetonitrile, HPLC on reversed-phase column (C 18)
SMILES,"LOGP_HCOOH [1, 4]","LOGP_NEUTRAL [1, 5]",efficacy (beetle larvae killed) ([2]; application rate 500 g/ha) [%],efficacy (caterpillars killed) ([3]; application rate 100 g/ha) [%],efficacy (caterpillars killed) ([3]; application rate 500 g/ha) [%],efficacy (beetle larvae killed) ([2]; application rate 100 g/ha) [%],"LOGP_HCOOH [1, 6]","chromatographic logP ([1]; pH 2.7, LC-MS acidic range, pH 2.7, 0.1% formic acid/acetonitrile, read-out: log P (acidic) / log P (HCOOH))","chromatographic logP ([1]; pH 2.7, log P (HCOOH), acidic range at pH 2.7, 0.1% aqueous formic acid and acetonitrile, HPLC on reversed-phase column (C 18), read-out: LOGP_HCOOH)","pest or weed control at 500 g/ha ([2]; Phaedon cochleariae, foliar, 168 h, application rate 500 g/ha, read-out: efficacy (beetle larvae killed)) [%]","pest or weed control at 500 g/ha ([3]; Spodoptera frugiperda, foliar, 168 h, application rate 500 g/ha, read-out: efficacy (caterpillars killed)) [%]"
O=C(NCc1ccc(C(F)(F)F)c(F)c1)c1cc(-c2ccc(C(F)(F)F)cc2)cc(NC(=O)C2CC2)n1 [Example I-064],4.68,4.53,100,100,100,–,–,–,–,–,–
O=C(NCc1ccc(Cl)cc1F)c1cc(-c2ccc(C(F)(F)F)cc2)cc(NC(=O)C2CC2)n1 [Example I-066],4.63,4.53,100,–,100,–,–,–,–,–,–
O=C(NCc1ccc(Cl)cc1F)c1cc(-c2ccc(OC(F)(F)F)cc2)cc(NC(=O)C2CC2)n1 [Example I-067],4.78,4.60,100,100,100,–,–,–,–,–,–
N#Cc1cc(F)c(CNC(=O)c2cc(-c3ccc(C(F)(F)F)cc3)cc(NC(=O)C3CC3)n2)c(F)c1 [Example I-068],4.00,3.87,100,100,100,100,–,–,–,–,–
CC(C)C(=O)Nc1cc(-c2ccc(C(F)(F)F)cc2)cc(C(=O)NCc2cc(F)c(C#N)cc2F)n1 [Example I-071],4.23,4.08,83,100,100,–,–,–,–,–,–
N#Cc1cc(F)c(CNC(=O)c2cc(-c3ccc(OC(F)(F)F)cc3)cc(NC(=O)C3CC3)n2)cc1F [Example I-086],4.15,4.02,100,100,83,–,–,–,–,–,–
CC(C)C(=O)Nc1cc(-c2ccc(C(F)(F)F)cc2)cc(C(=O)NC(C)c2ccc(C#N)cc2)n1 (stereo not drawn) [Example I-087],4.20,4.15,83,100,100,–,–,–,–,–,–
N#Cc1ccc(CNC(=O)c2cc(-c3ccc(SC(F)(F)F)cc3)cc(NC(=O)C3CC3)n2)cn1 [Example I-090],3.79,3.72,100,83,100,–,–,–,–,–,–
Cc1cc(OC(F)(F)F)ccc1-c1cc(NC(=O)C2CC2)nc(C(=O)NCc2ccc(C#N)cc2)c1 [Example I-099],4.03,3.95,100,100,100,100,–,–,–,–,–
O=C(NC1CC1)c1cc(-c2ccc(S(=O)(=O)C(F)(F)F)cc2)cc(NC(=O)C2CC2)n1 [Example I-103],3.28,3.17,100,–,100,–,–,–,–,–,–
N#Cc1ccc(CNC(=O)c2cc(-c3ccc(OC(F)(F)F)cc3)cc(NC(=O)C3CC3)n2)nc1 [Example I-106],3.42,3.33,–,80,100,100,–,–,–,–,–
N#Cc1c(F)cc(CNC(=O)c2cc(-c3ccc(OC(F)(F)F)cc3)cc(NC(=O)C3CC3)n2)cc1F [Example I-111],–,4.02,100,100,100,100,4.18,–,–,–,–
O=C(NCc1ccc(-c2nnco2)cc1)c1cc(-c2ccc(OC(F)(F)F)cc2)cc(NC(=O)C2CC2)n1 [Example I-112],–,3.37,100,83,100,–,3.41,–,–,–,–
Cn1ncc2cc(CNC(=O)c3cc(-c4ccc(OC(F)(F)F)cc4)cc(NC(=O)C4CC4)n3)cnc21 [Example I-114],–,3.23,100,83,100,–,3.33,–,–,–,–
N#Cc1ccc(CNC(=O)c2cc(-c3ncc(C(F)(F)F)cc3Cl)cc(NC(=O)C3CC3)n2)cc1 [Example I-119],–,3.35,100,100,100,100,3.53,–,–,–,–
"N#Cc1ccc(CNC(=O)c2cc(-c3ccc(C(F)(F)F)nc3)cc(NC(=O)C3CC3)n2)cc1 [Example I-123, N-(4-Cyanobenzyl)-6′-[(cyclopropylcarbonyl)amino]-6-(trifluoromethyl)-3,4′-bipyridine-2′-carboxamide]",–,2.99,–,–,–,–,–,3.02,3.13,100,100
O=C(Cc1ccc(Br)cc1)Nc1cc(-c2ccc(OC(F)(F)F)cc2)cc(C(=O)NC2CC2)n1 [Example I-125],–,4.20,100,100,100,–,4.46,–,–,–,–
C#CC1(NC(=O)c2cc(-c3ccc(OC(F)(F)F)cc3)cc(NC(=O)C3CC3)n2)CC1 [Example I-126],–,–,100,83,100,–,3.63,–,–,–,–
CNC(=O)c1cc(-c2ccc(OC(F)(F)F)cc2)cc(NC(=O)C2CC2)n1 [Example I-127],–,–,100,83,100,–,3.02,–,–,–,–
CC(C)NC(=O)c1cc(-c2ccc(OC(F)(F)F)cc2)cc(NC(=O)C2CC2)n1 [Example I-129],–,–,100,100,100,100,3.84,–,–,–,–
CCCNC(=O)c1cc(-c2ccc(OC(F)(F)F)cc2)cc(NC(=O)C2CC2)n1 [Example I-132],–,–,100,100,100,–,3.78,–,–,–,–
O=C(NC1CCOC1=O)c1cc(-c2ccc(OC(F)(F)F)cc2)cc(NC(=O)C2CC2)n1 (stereo not drawn) [Example I-135],–,–,83,–,100,–,3.11,–,–,–,–
O=C(NC1(C(F)(F)F)CC1)c1cc(-c2ccc(OC(F)(F)F)cc2)cc(NC(=O)C2CC2)n1 [Example I-137],–,–,100,100,100,100,4.17,–,–,–,–
COC1(NC(=O)c2cc(-c3ccc(OC(F)(F)F)cc3)cc(NC(=O)C3CC3)n2)CC1 [Example I-140],–,–,100,100,100,100,3.58,–,–,–,–
N#Cc1ccc(CNC(=O)c2cc(-c3ccc(CC(F)(F)F)cc3)cc(NC(=O)C3CC3)n2)cc1 [Example I-144],–,3.00,100,100,100,100,3.55,–,–,–,–
O=C(N[C@H]1CC[C@@H](C(F)(F)F)CC1)c1cc(-c2ccc(OC(F)(F)F)cc2)cc(NC(=O)C2CC2)n1 [Example I-145],–,4.72,100,100,100,100,4.90,–,–,–,–
O=C(NC1CCC(C(F)(F)F)CC1)c1cc(-c2ccc(OC(F)(F)F)cc2)cc(NC(=O)C2CC2)n1 (stereo not drawn) [Example I-146],–,4.60,100,–,83,–,4.77,–,–,–,–
CC1(C(=O)Nc2cc(-c3ccc(OC(F)(F)F)cc3)cc(C(=O)NCc3ccc(C#N)cc3)n2)CC1 [Example I-147],–,–,100,100,100,100,4.33,–,–,–,–
